The source made the active and inactive calls. No cut-off for these calls is given here.
What was measured:
[1] = Cytotoxicity against mouse NIH/3T3 cells assessed as reduction in cell viability after 72 hrs by MTT assay; format: toxicity, cell-based, NIH3T3
Salmonidae = experiment: Binding affinity to salmon sperm DNA assessed as DNA intercalation at 0.04 mole fraction after 5 mins by UV-Vis spectroscopic method
[2] = Cytotoxicity against mouse Sarcoma 180 cells assessed as reduction in cell viability after 72 hrs by MTT assay; format: functional, cell-based; conditions: Sarcoma-180, 72 h
[3] = Cytotoxicity against human HeLaS3 cells assessed as reduction in cell viability after 72 hrs by MTT assay; format: functional, cell-based; conditions: HeLa S3, 72 h
[4] = Binding affinity to synthetic biotin-labeled 30-mer GC-rich duplex DNA in pH 7.4 EDTA buffer solution in presence of 50 mM NaCl at 25 degC by QCM sensogram analysis
[5] = Binding affinity to synthetic biotin-labeled 30-mer GC-rich duplex DNA in pH 7.4 EDTA buffer solution in presence of 200 mM NaCl at 25 degC by QCM sensogram analysis
[6] = Binding affinity to synthetic biotin-labeled 30-mer GC-rich duplex DNA in pH 7.4 EDTA buffer solution in presence of 0.05 M NaCl at 25 degC by QCM sensogram analysis
[7] = Binding affinity to synthetic biotin-labeled 30-mer AT-rich duplex DNA in pH 7.4 EDTA buffer solution in presence of 0.05 M NaCl at 25 degC by QCM sensogram analysis
[8] = Ratio of Ka for synthetic biotin-labeled 30-mer GC-rich duplex DNA in presence of 200 mM NaCl to Ka for synthetic biotin-labeled 30-mer GC-rich duplex DNA in presence of 50 mM NaCl
[9] = Selectivity index, ratio of IC50 for mouse NIH/3T3 cells to IC50 for mouse Sarcoma 180 cells; format: functional
HeLa S3 = experiment: Selectivity ratio of IC50 for human HeLaS3 cells to IC50 for mouse Sarcoma 180 cells; format: functional

SMILES	Activity (Salmonidae)	Ka [6] [×10⁵ /M]	Ka [7] [×10⁵ /M]	IC50 at 72 h [1] [µM]	IC50 [2] [µM]	IC50 [3] [µM]	other results
Cc1c2ccncc2c(C)c2c1[nH]c1ccc(O)cc12	Active	–	–	0.9	0.44	–	–
CNC(=O)NCCCCNC(=O)c1c2cc[n+](C)cc2c(C)c2c1[nH]c1ccccc12	Active	–	–	> 100	> 88	96	–
CNC(=O)NCCCCC[n+]1ccc2c(C)c3c(c(C)c2c1)c1cc(O)ccc1n3C	–	28.5	15.8	–	–	–	Ka [4]: 28.5 ×10⁵ /M; Ka [5]: 17.9 ×10⁵ /M; Ratio [8]: 0.4 to 0.5
CNC(=O)NCCNC(=O)c1c2ccncc2c(C)c2c1[nH]c1ccc(OC)cc12	–	–	–	–	–	7.6	–
COc1ccc2[nH]c3c(C(=O)NCCN)c4cc[n+](C)cc4c(C)c3c2c1	Active	–	–	–	58	> 100	–
CNC(=O)NCCCNC(=O)c1c2cc[n+](C)cc2c(C)c2c1[nH]c1ccccc12	Active	–	–	31	34	> 22	–
CNC(=O)NCCOCC[n+]1ccc2c(C)c3[nH]c4ccc(O)cc4c3c(C)c2c1.[Cl-]	Active	–	–	5	2.2	–	Ratio IC50 [9]: 3 - 24; Ratio IC50 (HeLa S3): 13 - 37
Cc1c2c[n+](CCOCCN)ccc2c(C)c2c1c1cc(O)ccc1n2C	Active	311	102	–	–	–	Ka [4]: 311 ×10⁵ /M; Ka [5]: 162 ×10⁵ /M; Ratio [8]: 0.4 to 0.5
Cc1c2cnccc2c(C(=O)NCCCCN)c2[nH]c3ccccc3c12	–	0.733	0.279	–	–	–	–
CNC(=O)NCCNCCNC(=O)c1c2cc[n+](C)cc2c(C)c2c1[nH]c1ccccc12	–	–	–	45	78	> 100	–
CNC(=O)NCCNC(=O)c1c2cc[n+](C)cc2c(C)c2c1[nH]c1ccccc12	Active	–	–	> 100	> 100	> 100	–
CNC(=O)NCCCCCNC(=O)c1c2cc[n+](C)cc2c(C)c2c1[nH]c1ccccc12	Active	–	–	37	80	> 100	–
COc1ccc2[nH]c3c(C(=O)NCCN)c4ccncc4c(C)c3c2c1	–	–	–	–	–	1.04	–
CNC(=O)NCCCCNC(=O)c1c2ccncc2c(C)c2c1[nH]c1ccccc12	–	0.427	0.185	–	–	–	–

Second part, led by results:

Activity (Salmonidae)	Ka [6] [×10⁵ /M]	Ka [7] [×10⁵ /M]	SMILES	IC50 at 72 h [1] [µM]	IC50 [2] [µM]	IC50 [3] [µM]	other results
Active	–	–	Cc1c2cc[n+](C)cc2c(C)c2c1[nH]c1ccccc12	2	0.7	2.9	–
Active	–	–	Cc1c2cnccc2c(C(=O)NCCN)c2[nH]c3ccccc3c12	1.4	2.2	2.4	–
Active	9.9	3.59	CNC(=O)NCCOCC[n+]1ccc2c(C)c3[nH]c4ccccc4c3c(C)c2c1	–	–	–	Ka [4]: 9.92 ×10⁵ /M; Ka [5]: 5.99 ×10⁵ /M; Ratio [8]: 0.4 to 0.5
Active	8.33	4.29	Cc1c2c[n+](CCN)ccc2cc2[nH]c3ccccc3c12	–	–	–	–
Active	14.8	7.41	CNC(=O)NCCOCC[n+]1ccc2c(C(=O)OC)c3[nH]c4ccccc4c3c(C)c2c1	–	–	–	–
Active	–	–	Cc1c2c[n+](C)ccc2c(C(=O)NCCCCN)c2[nH]c3ccccc3c12	> 100	> 100	> 100	–
Active	–	–	Cc1c2cc[n+](CCN)cc2c(C)c2c1[nH]c1ccccc12	–	3.2	6.58	–

From ChEMBL document CHEMBL3877309, “Determination of binding modes and binding constants for the complexes of 6H-pyrido[4,3-b]carbazole derivatives with DNA” (Bioorg Med Chem, 2017)
